Patent US12258377B2 (Scancell Limited, priority 2012, dated 2025)
Like-named read-outs stand apart in the source and are kept apart here. Square brackets hold non-standard residues; d marks the D form. Ends that are not written are not given here. Cit = NC(=O)NCCC[C@H](N)C(=O)O

Experiments:
splenocytes [1] = assay: Ex vivo elispot assay on splenocytes of immunised HLA-DR1 / HLA-A2/DR1 (HHDII/DR1) transgenic mice; format: in vivo; conditions: HHD1/DR1 mice
Description: (§1) C57BL/6 mice (Charles River, UK), HLA-DR4 mice (Taconic, USA), HHDII mice (Pasteur institute, France) and HHDII/DRI mice (Pasteur institute, France) were used, aged between 8 and 12 weeks, and cared for by the staff at Nottingham Trent University. All work was carried out under a Home Office project license. Peptides were dissolved in 10% Dimethylformamide to 1 mg/ml and then emulsified (a series of dilutions) with different adjuvants: CpG and MPLA 6 μg/mouse of each (Invivogen, UK), Incomplete Freund's […] (Sigma, UK), and GMCSF 10 μg/mouse (Peprotech, UK). Peptides (25 μg/mouse) were injected subcutaneously at the base of the tail. DNA (1 μg/mouse) was coated onto 1.0 μm gold particles (BioRad, Hemel Hempstead, UK) using the manufacturer's instructions and administered intradermally by genegun (BioRad). Homspera (10 nM/mouse) (PeptideSynthetics, UK) was injected intradermally with genegun immunisation. Mice were immunized at either day 0 for peptide immunisation or days, 0, 7, and 14 for peptide and genegun immunisation. Spleens were removed for analysis at day 14 for peptide and day 20 for peptide or genegun immunisation unless stated otherwise. 400 μg Anti-CD25 antibody (PC61) was administered i.p. in saline 3 days prior to the immunisation. 200 μg Anti-CTLA-4 antibody (UC 10-4F, 10-11) was administered i.p. in saline at day 7 and 14 with either genegun or peptide immunisation.
(§2) Elispot assays were performed using murine IFNγ, IL-17 and IL-10 capture and detection reagents according to the manufacturer's instructions (Mabtech, Sweden). In brief, anti-IFNγ, IL-17 and IL-10 antibodies were coated onto wells of 96-well Immobilin-P plate. Synthetic peptides (at a variety of concentrations) and 5×10^5 per well splenocytes were added to the wells of the plate in triplicate. Tumour target cells were added where relevant at 5×10^4/well in triplicate and plates incubated for 40 hrs at 37° C. After incubation, captured IFNγ, […], IL-17 and IL-10 were detected by biotinylated anti-IFNγ, IL-17 and IL-10 antibodies and developed with a strepatavidin alkaline phosphatase and chromogenic substrate. Spots were analysed and counted using an automated plate reader (Cellular Technologies Ltd). Functional avidity was calculated as the concentration mediating 50% maximal effector function using a graph of effector function versus peptide concentration.

PBMC = assay: Proliferation assay of PBMC from cancer patients; format: cell-based, human; conditions: PBMC stimulated with 10 μg/ml peptide for 4, 7 and 11 days, 3H-thymidine
Description: PBMC were isolated from freshly drawn heparinised blood by Ficol-Hypaque (Sigma) gradient centrifugation. PBMC (1.5×10^6 cells/well) were stimulated with single peptides (final concentration 10 μg/ml) in RPMI containing 5% pooled autologous human serum, 2 mM glutamine, 20 mM HEPES and Penicillin-streptomycin (1%) in a final volume of 2 ml. Stimulation with purified protein derivative, PPD (final concentration 10 μg/ml) served as a positive control for the proliferative capacity of PBMC. As a negative control PBMC were incubated with medium alone. The PBMC were cultured at 37° C. in an atmosphere of 5% CO2 for 4, 7 and 11 days. To assess proliferation at these times points 100 μl in triplicate from each culture was aliquoted into a round bottom well of a 96 well plate and ^3H-thymidine added (0.0185 MBq/well) and incubated at 37° C. for a further 8 hours. The cultures were harvested onto unifilter plates and incorporation of ^3H-thymidine was determined by β-scintillation counting. The results were assessed by calculating the stimulation index (SI) as the ratio of the mean of counts per minute (cpm) of epitope-stimulated to the mean of unstimulated cultures. The proliferative assay was considered positive when SI >2.5.

splenocytes [2] = assay: Ex vivo elispot assay on splenocytes of immunised HLA-DR4 transgenic mice; format: in vivo; conditions: for IFNγ/IL-17 response with alum or IFA / IFNγ/IL-17 responses with CpG/MPLA, GMCSF and TMX201 adjuvants / IL-10 responses to the citrullinated peptides with IFA: 25 μg peptide s.c.; for IL-10 elispot responses: against wild type and citrullinated peptides; for IFNγ elispot response to citrullinated peptide, mean / IFNγ elispot response to wild type peptide, mean: day 14 splenocytes; for response after depletion of CD4 cells or addition of MHC class II blocking antibody: L243 antibody, FIG. 15
Description: as §1, §2

Granzyme B = Granzyme B ELISA on supernatant of ex vivo IFNγ elispot; format: cell-based, HLA-DR4 transgenic mice; conditions: immunised days 0, 7, 14 in CPG and MPLA
Source text: Supernatant from ex vivo IFNγ elispot assays on splenocytes was removed after 40 hrs and assessed for Granzyme B by elisa assay (R&D systems) according to manufacturer's instructions.

T2 DR4 tumour cells = assay: 51Cr-release assay, CTL lines from immunised mice against T2 DR4 cells; format: cell-based; conditions: for killing of normal splenocytes: DR4 splenocytes; for killing of T2 tumour cells transfected with human DR4: targets pulsed with peptide or not
Description: Target cells were labelled for 1 hr with 1.85 MBq sodium (^51Cr) chromate (Amersham, Essex, UK) with or without 10 μg/ml peptide. Post incubation they were washed 3 times in RPMI. Targets 5×10^3/well of a 96-well V-bottomed plates were set up and co incubated with different densities of effector cells in a final volume of 200 μl of RPMI, 10% FCS (Sigma), 20 mM HEPES buffer, 2 mM L-glutamine, 100 units/ml penicillin and 100 μg/ml streptomycin. After 20 hrs at 37° C., 50 μl of supernatants were removed from each well and transferred to a Lumaplate (Packard, Rigaweg, the Netherlands). Plates were read on a Topcount Microplate Scintillation Counter (Packard). Percentage specific lysis was calculated using the following formula: specific lysis=100×[(experimental release−spontaneous release)/(maximum release−spontaneous release)].

B16F1-DR4 cells = assay: Tumour challenge with B16F1-DR4 cells; format: in vivo, HLA-DR4 transgenic mice; conditions: for anti-tumour response with blockade of IFNγ in vivo: IFNγ neutralising monoclonal antibody; for anti-tumour response with blockade of IL-17 in vivo: IL-17 neutralising antibody; for anti-tumour response in combination with CD4 T cell depletion (anti-CD4 antibody): clone GK1.5; for anti-tumour response / survival: peptide 25 μg in CpG and MPLA s.c. or DNA via gene gun, days 4, 11, 18, versus unimmunised control
Description: (§3) For tumour challenge experiments mice were challenged with 2.5×10^4 B16 HHDII NYESO/TAP2 siβ2m 1F10 cells or B16 DR4 2E7 cells subcutaneously on the right flank 3 days prior to primary immunisation and then were immunised as above. Anti-IFNγ antibody (300 μg/dose), anti-IL-17 antibody (200 μg/dose) and anti-HLA-DR antibody (300 μg/dose) were administered i.p. in saline at days 2, 7, 11 and 14 post tumour implant. Anti-CD4 antibody (500 μg/dose) was administered i.p.in saline at days 2 and 8 post tumour implant. Tumour growth was monitored at 3-4 days intervals and mice were humanely euthanized once tumour reached ≥10 mm in diameter.

B16F1 cells = assay: Tumour challenge with B16 tumour lacking HLA-DR0401; format: in vivo, HLA-DR4 transgenic mice; conditions: B16 tumour lacking expression of HLA-DR0401; 25 μg peptide in CpG and MPLA
Description: as §3

splenocytes [3] = assay: Ex vivo elispot assay on splenocytes of immunised C57B1 mice; format: in vivo, C57BL/6 mice; conditions: C57B1 mice
Description: as §1, §2

HLA-DR0401 [4] = biological target: HLA-DR0401 (Homo sapiens, UniProt P01903+P01911, A100K/A169T/F76Y/I96L/K127E/L162R/M171V/N62H/P40V/Q125Y/R42H/S133A/S149N/S66Y/V115G/V209L/W38E); assay: HLADR0401 competitive binding assay against biotinylated HA306-318; conditions: FIG. 12
Source text: In brief, peptides of interest were mixed with a predetermined concentration biotinylated HA306-318 reference peptide at increasing concentrations and added to plate bound HLA DR0401. Amounts of biotinylated reference peptide binding to HLA DR0401 was quantified using streptavidin linked enzyme step followed by detection with chromogenic substrate. Maximal binding is taken as the value achieved by biotinylated HA 306-318 peptide alone. As a positive control unlabelled HA 306-318 peptide was used to compete with the biotinylated version.

HLA-DR0401 [5] = biological target: T1, HLA-DR0401 (human); assay: competitive binding assay, plate-bound HLA-DR0401, biotinylated HA306-318 as competitor
T1 construct: also called purified HLA-DR0401; HLA-DR4

[6] = 25 μg peptide with CpG and MPLA day 0, day 14
[7] = 25 μg peptide with CpG and MPLA day 0, day 14, peptide 5 μM
[8] = 25 μg peptide with CpG and MPLA day 0, peptide 5 μM
[9] = 25 μg peptide in CpG and MPLA s.c. days 4, 11, 18

| Molecule | response after peptide immunisation (splenocytes [1]) | IFNγ/IL-17 response with alum or IFA (splenocytes [2]; day 14) | IFNγ/IL-17 responses with CpG/MPLA, GMCSF and TMX201 adjuvants (splenocytes [2]; day 14) | IL-10 responses to the citrullinated peptides with IFA (splenocytes [2]; day 14) | IL-10 elispot responses (splenocytes [2]; [6]) | IFNγ elispot response to citrullinated peptide, mean (splenocytes [2]; [8]) | IFNγ elispot response to wild type peptide, mean (splenocytes [2]; [8]) | response after depletion of CD4 cells or addition of MHC class II blocking antibody (splenocytes [2]; IFNγ elispot) | Granzyme B release upon stimulation with citrullinated peptides (Granzyme B) | killing of normal splenocytes (T2 DR4 tumour cells) | killing of T2 tumour cells transfected with human DR4 (T2 DR4 tumour cells) | anti-tumour response with blockade of IFNγ in vivo (B16F1-DR4 cells) | anti-tumour response with blockade of IL-17 in vivo (B16F1-DR4 cells) | anti-tumour response in combination with CD4 T cell depletion (anti-CD4 antibody) (B16F1-DR4 cells) | anti-tumour response / survival (B16F1-DR4 cells) | tumour growth and survival (B16F1 cells) | response after peptide immunisation (splenocytes [3]) | further results |
| --- | --- | --- | --- | --- | --- | --- | --- | --- | --- | --- | --- | --- | --- | --- | --- | --- | --- | --- |
| LPNFSSLNLRETNLDSLPL [citrullinated vim 415] | failed to raise a response | no response | Potent IFNγ/IL-17 responses | high frequency IL-10 responses | No significant IL-10 responses | 1000 /million splenocytes | no responses | CD4 mediated | release of Granzyme B | no killing of normal splenocytes | killed transfected targets whether they were pulsed with the appropriate peptide or not | abrogates | low significant influence | totally abrogates the anti-tumour response | strong anti-tumour responses | failed to show any tumour response | failed to raise a response | patients showing a proliferative response (SI >2.5) (PBMC; listed as citrullinated vim 415-433): 5/11; patients showing a proliferative response (SI >2.5) (PBMC; listed as vim 415 cit): Five of eight; EC50 (splenocytes [2]; 25 μg peptide days 0, 7, 14, anti-CTLA-4 days 7 and 14, day 21, IFNγ elispot, read-out: avidity of the T cell response in the presence of an anti-CTLA-4 mab): 10 nM; EC50 (splenocytes [2]; 25 μg peptide days 0, 7, 14, day 21, IFNγ elispot, read-out: avidity of the T cell response without anti-CTLA-4 mab): 1000 nM; IL-2 elispot response to citrullinated peptide, mean (splenocytes [2]; [7]): 350 /million splenocytes; IL-2 elispot response to wild type peptide (splenocytes [2]; [7]): no response; IL-17 elispot response to citrullinated peptide, mean (splenocytes [2]; [7]): 530 /million splenocytes; IL-17 elispot response to wild type peptide, mean (splenocytes [2]; [7]): 140 /million splenocytes; T cell responses to mouse vim 415 cit versus human vim 415 cit (splenocytes [2]; immunised with 25 μg human peptide day 0, day 14, IFNγ and IL-17 elispot): equal responses to both peptides; T helper phenotype when immunised with complete Freund's adjuvant (splenocytes [2]; mouse, in vivo): Th1/IL-17 phenotype; mice cured of their tumour (B16F1-DR4 cells; [9]): 30%; mice with no tumour at day 35 (B16F1-DR4 cells; [9]): 50%; anti-tumour response in combination with anti-HLA-DR blocking antibody (B16F1-DR4 cells; B16 tumour expressing HLA-DR0401): prevents the anti-tumour response |
| citSYVTTSTcitTYSLGSALcitPSTS ([Cit]SYVTTST[Cit]TYSLGSAL[Cit]PSTS) [citrullinated vim 28-49] | failed to raise a response | no response | Potent IFNγ/IL-17 responses | high frequency IL-10 responses | No significant IL-10 responses | 600 /million splenocytes | 250 /million splenocytes | CD4 mediated | release of Granzyme B | no killing of normal splenocytes | killed transfected targets whether they were pulsed with the appropriate peptide or not | abrogates | small effect significant influence | totally abrogates the anti-tumour response | significantly enhanced survival | delayed tumour growth and enhanced survival | failed to raise a response | binding to HLA-DR0401 (competition with HA 306-318 reference peptide) (HLA-DR0401 [4]): better binding to HLA-DR0401 compared to the wild type version; patients showing a proliferative response (SI >2.5) (PBMC): 5/11; patients showing a proliferative response (SI >2.5) (PBMC; listed as vim 28 cit): five; EC50 (splenocytes [2]; 25 μg peptide day 0, day 14, increasing peptide concentration, IFNγ elispot, read-out: avidity of the IFNγ response (concentration mediating 50% maximal effector function)): 1000 nM; EC50 (splenocytes [2]; 25 μg peptide day 0, day 14, increasing peptide concentration, IL-17 elispot, read-out: avidity of the IL-17 response (concentration mediating 50% maximal effector function)): 1000 nM; IFNγ elispot response against vimentin 28-49 triple, double and single citrullinated peptides (splenocytes [2]; peptide immunisation, FIG. 11): significantly stronger response |
| RSYVTTSTRTYSLGSALRPSTS (also called vim 28-49; vim 28) [Vimentin 28-49 wild type peptide] | – | – | – | – | – | – | – | – | – | – | – | – | – | – | – | – | – | binding result (HLA-DR0401 [5]): binds |
